Data taken from patent US20160186067A1, “METHODS AND SYSTEMS FOR […]” (SHELL OIL COMPANY, priority 2014, published 2016).

Experiment: Partitioning of reaction intermediates and solvents between upper toluene-rich and lower aqueous phases (toluene extraction)
Conditions: for Kow UL/LL (partition coefficients for toluene extraction): upper toluene-rich layer / lower aqueous-rich layer, toluene added to reactor product of wood digestion, stirred at 150° C. for 2 hours, then cooled and decanted; for Phase preference in toluene extraction: upper organic vs lower aqueous phase, Example 2
Protocol: The injector temperature was set at 250° C., and the detector temperature was set at 300° C. A range of alkanes, ketone and aldehyde monooxygenates as well as residual glycol intermediates including ethylene glycol (EG), 1,2-propylene glycol (PG) and glycerol were observed, along with phenolic components from the initial charge of solvent, and those formed in reaction.
Reaction cycles entailed 1 hour at 160° C., followed by 1 hour at 190° C., followed by 3 hours at 240° C. Six cycles of wood addition were effected, followed by heating overnight at 270° C. under 52 bar of H2 to complete the conversion of intermediates.
Stirring was then stopped, and the reactor was allowed to cool. […] Catalyst was left on the reactor bottom.

## OCCO [EG, ethylene glycol]
  Kow UL/LL (partition coefficients for toluene extraction): 0.42

## CCCc1ccc(O)c(OC)c1 [MPP, 2-methoxy-4-propylphenol]
  Phase preference in toluene extraction: highly favored the upper organic-rich phase
  Kow UL/LL (partition coefficients for toluene extraction): 33.59

## CC(O)CO (stereo not drawn) [PG, 1,2-propylene glycol]
  Kow UL/LL (partition coefficients for toluene extraction): 5.09

## Cc1cccc(C)c1O [xylenol, 2,6-xylenol]
  Phase preference in toluene extraction: highly favored the upper organic-rich phase
  Kow UL/LL (partition coefficients for toluene extraction): 51.79
